{"source": "ChEMBL document CHEMBL4049384", "about": "“Synthesis and evaluation of an injectable everolimus prodrug” (Bioorg Med Chem Lett, 2017)", "key": {"[1]": {"system": "Blood", "test": "Prodrug conversion in Sprague-Dawley rat blood assessed as everolimus level at 2.724 mg/kg, iv at 0.5 hrs post dose by HPLC method", "format": "ADME, organism-based", "details": "in vivo"}, "[2]": {"system": "Blood", "test": "Prodrug conversion in Sprague-Dawley rat blood assessed as everolimus level at 2.724 mg/kg, iv at 6 hrs post dose by HPLC method", "format": "ADME, organism-based", "details": "in vivo"}, "[3]": {"test": "Cmax in Sprague-Dawley rat at 2.724 mg/kg, iv", "format": "ADME, organism-based", "design": "dose 2.724 mg/kg, route intravenous", "details": "in vivo"}, "[4]": {"system": "OS-RC-2", "test": "Antitumor activity against human OS-RC2 cells xenografted in nude mouse assessed as reduction in tumor volume at 1.5 mg/kg, iv administered three times a week measured on day 5 relative to control", "format": "functional"}, "[5]": {"system": "Mus musculus", "test": "Toxicity in nude mouse xenografted with human OS-RC2 cells assessed as body weight loss at 24 mg/kg, iv administered once weekly measured on day 15 (reference value: 20.2 %)", "format": "organism-based", "details": "in vivo"}, "[6]": {"system": "OS-RC-2", "test": "Antitumor activity against human OS-RC2 cells xenografted in nude mouse assessed as reduction in tumor volume at 24 mg/kg, iv administered once weekly measured on day 12 relative to control", "format": "functional"}, "[7]": {"system": "OS-RC-2", "test": "Antitumor activity against human OS-RC2 cells xenografted in nude mouse assessed as reduction in tumor volume at 1.5 mg/kg, iv administered three times a week measured on day 29 relative to control", "format": "functional"}, "[8]": {"system": "OS-RC-2", "test": "Antitumor activity against human OS-RC2 cells xenografted in nude mouse assessed as tumor growth inhibition at 1.5 mg/kg, iv administered three times a week measured after 32 days relative to control", "format": "functional", "details": "OS-RC-2, iv, 768 h, read-out: TGI"}, "[9]": {"test": "AUC (0 to infinity) in Sprague-Dawley rat at 2.724 mg/kg, iv", "format": "ADME, organism-based", "design": "dose 2.724 mg/kg, route intravenous, time infinity", "details": "in vivo"}, "[10]": {"system": "Mus musculus", "test": "Toxicity in nude mouse xenografted with human OS-RC2 cells assessed as body weight loss at 1.5 mg/kg administered three times a week intravenously and measured on Day 19 (reference value: 23.1 %)", "format": "organism-based", "details": "in vivo, iv"}, "[11]": {"system": "Mus musculus", "test": "Toxicity in nude mouse xenografted with human OS-RC2 cells assessed as body weight loss at 1.5 mg/kg administered three times a week intravenously and measured on Day 29 (reference value: 31.2 %)", "format": "organism-based", "details": "in vivo, iv"}, "[12]": {"system": "Rattus norvegicus", "test": "Prodrug conversion in rat assessed as everolimus formation by measuring everolimus AUC at 2 mg/kg, iv", "format": "ADME, organism-based", "details": "in vivo"}, "[13]": {"system": "OS-RC-2", "test": "Antitumor activity against human OS-RC2 cells xenografted in nude mouse assessed as tumor weight at 1.5 mg/kg, iv administered three times a week measured after 32 days (reference value: 0.68 +/- 0.06 g)", "format": "functional"}, "[14]": {"system": "Blood", "test": "Prodrug conversion in Sprague-Dawley rat blood assessed as everolimus level at 2.724 mg/kg, iv at 0.0833 hrs post dose by HPLC method", "format": "ADME, organism-based", "details": "in vivo, 5 min"}, "[15]": {"system": "Mus musculus", "test": "Toxicity in nude mouse xenografted with human OS-RC-2 cells assessed as body weight at 1.5 mg/kg, iv administered three times a week measured on day 1 (reference value: 20.4 +/- 0.33 g)", "format": "organism-based", "details": "in vivo"}, "[16]": {"system": "OS-RC-2", "test": "Antitumor activity against human OS-RC2 cells xenografted in nude mouse assessed as reduction in tumor volume at 24 mg/kg, iv administered once weekly measured on day 5 relative to control", "format": "functional"}, "[17]": {"test": "Tmax in Sprague-Dawley rat at 2.724 mg/kg, iv", "format": "ADME, organism-based", "details": "in vivo"}, "[18]": {"system": "OS-RC-2", "test": "Antitumor activity against human OS-RC2 cells xenografted in nude mouse assessed as reduction in tumor volume at 24 mg/kg, iv administered once weekly measured on day 32 relative to control", "format": "functional"}, "[19]": {"system": "NCI-H460", "test": "Antiproliferative activity against human NCI-H460 cells after 48 hrs by MTT assay", "format": "functional, cell-based", "details": "NCI-H460, 48 h"}, "[20]": {"system": "Mus musculus", "test": "Toxicity in nude mouse xenografted with human OS-RC-2 cells assessed as body weight at 24 mg/kg, iv administered once weekly measured on day 1 (reference value: 20.4 +/- 0.33 g)", "format": "organism-based", "details": "in vivo"}, "[21]": {"system": "Mus musculus", "test": "Toxicity in nude mouse xenografted with human OS-RC2 cells assessed as body weight loss at 24 mg/kg, iv administered once weekly measured on day 12 (reference value: 15 %)", "format": "organism-based", "details": "in vivo"}, "[22]": {"system": "Mus musculus", "test": "Toxicity in nude mouse xenografted with human OS-RC2 cells assessed as body weight loss at 24 mg/kg, iv administered once weekly measured on day 19 (reference value: 23.1 %)", "format": "organism-based", "details": "in vivo"}, "[23]": {"system": "OS-RC-2", "test": "Antitumor activity against human OS-RC2 cells xenografted in nude mouse assessed as reduction in tumor volume at 1.5 mg/kg, iv administered three times a week measured on day 22 relative to control", "format": "functional"}, "[24]": {"system": "Mus musculus", "test": "Toxicity in nude mouse xenografted with human OS-RC2 cells assessed as body weight loss at 24 mg/kg, iv administered once weekly measured on day 8 (reference value: 8.5 %)", "format": "organism-based", "details": "in vivo"}, "[25]": {"system": "Mus musculus", "test": "Toxicity in nude mouse xenografted with human OS-RC2 cells assessed as body weight loss at 24 mg/kg, iv administered once weekly measured on day 29 (reference value: 31.2 %)", "format": "organism-based", "details": "in vivo"}, "[26]": {"system": "Blood", "test": "Prodrug conversion in Sprague-Dawley rat blood assessed as everolimus level at 2.724 mg/kg, iv at 0.25 hrs post dose by HPLC method", "format": "ADME, organism-based", "details": "in vivo"}, "[27]": {"system": "Blood", "test": "Prodrug conversion in Sprague-Dawley rat blood assessed as everolimus level at 2.724 mg/kg, iv at 2 hrs post dose by HPLC method", "format": "ADME, organism-based", "details": "in vivo"}, "[28]": {"system": "OS-RC-2", "test": "Antitumor activity against human OS-RC2 cells xenografted in nude mouse assessed as tumor weight at 24 mg/kg, iv administered once weekly measured after 32 days (reference value: 0.68 +/- 0.06 g)", "format": "functional"}, "[29]": {"system": "Mus musculus", "test": "Toxicity in nude mouse xenografted with human OS-RC2 cells assessed as body weight loss at 1.5 mg/kg administered three times a week intravenously and measured on Day 22 (reference value: 23.1 %)", "format": "organism-based", "details": "in vivo, iv"}, "[30]": {"system": "OS-RC-2", "test": "Antitumor activity against human OS-RC2 cells xenografted in nude mouse assessed as reduction in tumor volume at 24 mg/kg, iv administered once weekly measured on day 19 relative to control", "format": "functional"}, "[31]": {"system": "OS-RC-2", "test": "Antitumor activity against human OS-RC2 cells xenografted in nude mouse assessed as reduction in tumor volume at 24 mg/kg, iv administered once weekly measured on day 26 relative to control", "format": "functional"}, "[32]": {"system": "OS-RC-2", "test": "Antitumor activity against human OS-RC2 cells xenografted in nude mouse assessed as reduction in tumor volume at 1.5 mg/kg, iv administered three times a week measured on day 8 relative to control", "format": "functional"}, "[33]": {"system": "Blood", "test": "Prodrug conversion in Sprague-Dawley rat blood assessed as everolimus level at 2.724 mg/kg, iv at 1.5 hrs post dose by HPLC method", "format": "ADME, organism-based", "details": "in vivo"}}, "note": "pIC50: −log10 of the molar value.", "data": [{"smiles": "CO[C@H]1C[C@@H]2CC[C@@H](C)[C@@](O)(O2)C(=O)C(=O)N2CCCC[C@H]2C(=O)O[C@H]([C@H](C)C[C@@H]2CC[C@@H](OCCOC(=O)CSC[C@H](NC(=O)CC[C@H](N)C(=O)O)C(=O)NCC(=O)O)[C@H](OC)C2)CC(=O)[C@H](C)/C=C(\\C)[C@@H](O)[C@@H](OC)C(=O)[C@H](C)C[C@H](C)\\C=C/C=C/C=C/1C", "values": [{"measurement": "Drug metabolism", "setting": "[1]", "result": 326.1655, "unit": "ng/mL"}, {"measurement": "Drug metabolism", "setting": "[2]", "result": 8.113, "unit": "ng/mL"}, {"measurement": "Cmax", "setting": "[3]", "result": 8420, "unit": "ng/mL"}, {"measurement": "T/C", "setting": "[4]", "result": 0.72, "unit": "%"}, {"measurement": "Activity", "setting": "[5]", "result": 8.9, "unit": "%"}, {"measurement": "T/C", "setting": "[6]", "result": 0.47, "unit": "%"}, {"measurement": "T/C", "setting": "[7]", "result": 0.54, "unit": "%"}, {"measurement": "inhibition in vivo at 1.5 mg/kg", "setting": "[8]", "result": 57.1, "unit": "%"}, {"measurement": "AUC(0-inf)", "setting": "[9]", "result": 2510, "unit": "ng·h/mL"}, {"measurement": "Activity", "setting": "[10]", "result": 11.5, "unit": "%"}, {"measurement": "Activity", "setting": "[11]", "result": 11.5, "unit": "%"}, {"measurement": "AUC", "setting": "[12]", "result": 2500, "unit": "ng·h/mL"}, {"measurement": "Activity", "setting": "[13]", "result": 0.29, "unit": "g"}, {"measurement": "Drug metabolism", "setting": "[14]", "result": 8421.1173, "unit": "ng/mL"}, {"measurement": "Activity", "setting": "[15]", "result": 20.67, "unit": "g"}, {"measurement": "T/C", "setting": "[16]", "result": 0.55, "unit": "%"}, {"measurement": "Tmax", "setting": "[17]", "result": 4.98, "unit": "min"}, {"measurement": "T/C", "setting": "[18]", "result": 0.53, "unit": "%"}, {"measurement": "pIC50", "setting": "[19]", "result": 4.57}, {"measurement": "Activity", "setting": "[20]", "result": 21.28, "unit": "g"}, {"measurement": "Activity", "setting": "[21]", "result": 6.3, "unit": "%"}, {"measurement": "Activity", "setting": "[22]", "result": 10.2, "unit": "%"}, {"measurement": "T/C", "setting": "[23]", "result": 0.56, "unit": "%"}, {"measurement": "Activity", "setting": "[24]", "result": 5.3, "unit": "%"}, {"measurement": "Activity", "setting": "[25]", "result": 10.5, "unit": "%"}, {"measurement": "Drug metabolism", "setting": "[26]", "result": 1995.0467, "unit": "ng/mL"}, {"measurement": "Drug metabolism", "setting": "[27]", "result": 28.155, "unit": "ng/mL"}, {"measurement": "Activity", "setting": "[28]", "result": 0.26, "unit": "g"}, {"measurement": "Activity", "setting": "[29]", "result": 11.5, "unit": "%"}, {"measurement": "T/C", "setting": "[30]", "result": 0.49, "unit": "%"}, {"measurement": "T/C", "setting": "[31]", "result": 0.55, "unit": "%"}, {"measurement": "T/C", "setting": "[32]", "result": 0.57, "unit": "%"}, {"measurement": "Drug metabolism", "setting": "[33]", "result": 40.4142, "unit": "ng/mL"}]}]}
